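Interpolation was linear, between the two tested concentrations surrounding the appropriate level; five concentrations were tested over 48 hours in 96-well plates. Here, GI50 denotes the concentration required for 50% inhibition of growth. TGI marks complete inhibition of growth.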 Where a SMILES comes first, the peptide text is derived from it. The star is where a group is joined. Trt = c1ccc(C(c2ccccc2)(c2ccccc2)*)cc1; Cbz = O=C(OCc1ccccc1)*
Key:
Assay in all cases: inhibition of tumour cell growth, NCI panel, 48 h
[1] = tested on: OVCAR-5 ovarian
[2] = tested on: SK-MEL-28 melanoma
[3] = tested on: U251 CNS
[4] = tested on: A549 NSCLC
[5] = tested on: TK-10 renal
[6] = tested on: SN12C renal
[7] = tested on: A498 renal
[8] = tested on: CAKI-1 renal
[9] = tested on: MCF7 breast
[10] = tested on: RXF 393 renal

SMILES	GI50 [1] [µM]	TGI [1] [µM]	GI50 [2] [µM]	TGI [2] [µM]	GI50 [3] [µM]	TGI [3] [µM]	GI50 [4] [µM]	TGI [4] [µM]	GI50 [5] [µM]	TGI [5] [µM]	GI50 [6] [µM]	TGI [6] [µM]	GI50 [7] [µM]	TGI [7] [µM]	GI50 [8] [µM]	TGI [8] [µM]	GI50 [9] [µM]	TGI [9] [µM]	GI50 [10] [µM]	TGI [10] [µM]
NC(=O)c1ccc2c(c1)-c1nc-2nc2[n-]c(nc3nc(nc4[n-]c(n1)c1ccc(C(N)=O)cc41)-c1ccc(C(N)=O)cc1-3)c1ccc(C(N)=O)cc21.[Co+2]	> 50	> 50	> 50	> 50	> 50	> 50	> 50	> 50	> 50	> 50	> 50	> 50	> 50	> 50	> 50	> 50				
NC(N)=N/N=C/c1c(-c2ccsc2)nc2n1CCS2	19.9	48.2			14.6	35.7	73.7	> 100	26	61.1	15.5	54.9	64.1	> 100			18	50.2	30.5	> 100
CC(C)(CN1C(=O)C(Cl)=C(Cl)C1=O)CN1C(=O)C(Cl)=C(Cl)C1=O		42.7		20		38.7		> 72.7		22.2		29.4		> 59		15.9				14.4
O=C(O/N=C1\CCCC\C1=C/c1ccccc1)c1ccc([N+](=O)[O-])cc1		> 100		> 100		> 100		> 100				> 100				> 100				> 100
C[C@H]1CC[P+](Cc2ccccc2)(c2ccccc2)C1 (stereo not given in full)		> 100		> 100		> 100		> 100		> 100		> 100		> 100						> 100
O=S1(=O)N2CN3CN(C2)CN1C3		362	40.6	225				935		692		158		522		571				
C=C1C(=O)O[C@H]2[C@H]1CC/C(COC(=O)c1cc(OC)c(OC)c(OC)c1)=C\CC[C@@]1(C)O[C@@H]21	1.76	5.08	1.59	3.37	1.6	3.47	3.05	12.1	1.22	2.7	1.24	3.12	2.57	8.56					0.299	1.27
COC(=O)C(CO)NC(=O)C(CSC(c1ccccc1)(c1ccccc1)c1ccccc1)NC(=O)OCc1ccccc1 (stereo not given) (Cbz-Cys(Trt)-Ser-OMe; configuration not given here)		35.3		34		33.3		> 48.5		> 66.1		27.3				39.4		> 59.1		32.5
COc1cnc2c(c1)C(=O)c1c-2n(CCCNC2=NCCS2)c(=O)c2cc(F)ccc12	0.795	13.3	12.1	24.9	0.0442	1.35	0.155	1.75	1.12	2.52	0.238	12.3	0.264	1.63			0.033	1.66		
